Test results: US20050148547A1, “Fungicidal mixtures based on benzamidoxime derivatives and azoles” (priority 2002, published 2005)

How the values were obtained:
[1] = tested on: Erysiphe [syn. Blumeria] graminis forma specialis. tritici; experiment: Activity against mildew of wheat (protective spray, greenhouse); assay type: in vivo; conditions: wheat seedlings Kanzler, 7 days
Description: (§1) Evaluation is carried out by determining the infected leaf areas as a percentage. These percentages are converted into efficacies. The efficacy (W) is calculated as follows using Abbot's formula: [formula] • α corresponds to the fungal infection of the treated plants as a % and • β corresponds to the fungal infection of the untreated (control) plants as a %
(§2) An efficacy of 0 means that the infection level of the treated plants corresponds to that of the untreated control plants; an efficacy of 100 means that the treated plants were not infected.
(§3) The expected efficacies of the mixtures of the active compounds were determined using Colby's formula [R. S. Colby, Weeds 15, 20-22 (1967)] and compared with the observed efficacies. Colby's formula: E=x+y−x·y/100 • E expected efficacy, expressed as a % of the untreated control, when using the mixture of the active compounds A and B at the concentrations a and b • x efficacy, expressed as a % of the untreated control, when using active compound A at a concentration of a • y efficacy, expressed as a % of the untreated control, when using active compound B at a concentration of b
Leaves of wheat seedlings of the cultivar “Kanzler”, grown in pots, were sprayed to runoff point with an aqueous preparation of active compound which had been prepared from a stock solution comprising 10% of active compound, 85% of cyclohexanone and 5% of emulsifier, and 24 hours after the spray coating had dried on the leaves were dusted with spores of mildew of wheat (Erysiphe [syn. Blumeria] graminis forma specialis. tritici). The test plants were then placed in a greenhouse at 20-24° C. and 60-90% relative atmospheric humidity. After 7 days, the extent of the mildew development was determined visually in % infection of the entire leaf area.
(§4) The visually determined values for the percentage of diseased leaf areas were converted into efficacies in % of the untreated control. An efficacy of 0 means the same disease level in the untreated control, an efficacy of 100 means a disease level of 0%. The expected efficacies for the combinations of active compounds were determined using Colby's formula (Colby, S. R. (Calculating synergistic and antagonistic responses of herbicide Combinations”, Weeds, 15, pp. 20-22, 1967) and compared with the observed efficacies.

[2] = tested on: Puccinia recondita; experiment: Curative activity against brown rust of wheat (greenhouse); assay type: in vivo; conditions: wheat seedlings Kanzler, 7 days
Description: The active compounds, separately or together, are formulated as a 10% emulsion in a mixture of 63% by weight of cyclohexanone and 27% by weight of emulsifier, and diluted with water to the desired concentration.
as §1, §2, §3
Leaves of wheat seedlings of the cultivar “Kanzler”, grown in pots, were dusted with spores of brown rust (Puccinia recondita). The pots were then placed in a chamber with high atmospheric humidity (90-95%), at 20-22° C., for 24 hours. During this time the spores germinated and the germinal tubes penetrated into the leaf tissue. The next day, the infected plants were sprayed to runoff point with an aqueous formulation of active compound prepared from a stock solution consisting of 10% of active compound, 85% of cyclohexanone and 5% of emulsifier. After the spray coating had dried on, the test plants were cultivated in a greenhouse at 20-22° C. and 65-70% relative atmospheric humidity for 7 days. Thereafter, the extent of the rust fungus development on the leaves was determined.
as §4, with “disease level as in the” for “disease level in the”, “Colby's formula (Colby. S. R.” for “Colby's formula (Colby, S. R.”

Row | SMILES | Efficacy in % of the untreated control ([1]; 0.015 ppm in the spray liquor) | Efficacy in % of the untreated control ([1]; 0.06 ppm in the spray liquor) | Efficacy in % of the untreated control ([1]; 0.25 ppm in the spray liquor) | Efficacy in % of the untreated control ([2]; 0.06 ppm in the spray liquor) | Efficacy in % of the untreated control ([2]; 0.25 ppm in the spray liquor) | Efficacy in % of the untreated control ([2]; 1 ppm in the spray liquor) | Efficacy in % of the untreated control ([2]; 0.015 ppm in the spray liquor) | Efficacy in % of the untreated control ([1]; 0.125 ppm in the spray liquor) | Efficacy in % of the untreated control ([1]; 1 ppm in the spray liquor)
1 | CCCCC(C#N)(Cn1cncn1)c1ccc(Cl)cc1 (centres unmarked) [myclobutanil] | 0% | 0% | 0% | 0% | 0% | 0% |  |  | 
2 | CC1(C)CCC(Cc2ccc(Cl)cc2)C1(O)Cn1cncn1 (centres unmarked) [metconazole] | 0% | 0% | 0% | 0% | 56% |  | 0% |  | 
3 | Fc1ccc(C2(Cn3cncn3)OC2c2ccccc2Cl)cc1 (centres unmarked) [epoxiconazole] | 0% | 0% | 29% | 11% | 56% |  | 0% | 0% | 59%
